# Reference: patent publication US12681015B2, “Methods for predicting patient response to DMARDs” (Queen Mary University of London, priority 2019, dated 2026)
# Entries after “also recorded” stand apart in the source; their conditions may differ.
# Key:
# [1] = system: inflammatory arthritis in wild type (WT) mice; assay: K/BxN serum inflammatory arthritis in wild type mice treated with MTX; type: in vivo
# Procedure: (§1) Inflammatory arthritis was initiated in wild type (WT) and Alox15^−/− deficient mice by the administration of arthritogenic serum on days 0 and 2. […] Disease severity was assessed by measuring (A) disease activity using a 26-point clinical score (B) body weight and (C) paw edema. (D) Eight days post disease initiation joints were collected, leukocytes were liberated and the number of infiltrated leukocytes was determined using flow cytometry and fluorescently labelled antibodies. Results for A-C are mean±SEM and for D are percentage of vehicle n=7 mice per group. Results for D are representative of n=8 mice per group. Experiments were conducted on two distinct occasions. * p<0.05 vs Vehicle group for A-C using two-way ANOVA, for D using one-sample t test.
# (§2) Inflammatory arthritis was initiated in wild type (WT) and Alox15^−/− mice by injecting K/BxN serum via intraperitoneal injection on days 0 and 2. […] Blood and joints were collected on day 8 and the concentrations of inflammatory eicosanoids in (A) plasma and (B) joints were determined using LC-MS/MS profiling.
# (§3) Plasma was obtained from peripheral blood of healthy volunteers, patients and mouse following centrifugation at 1500×g for 10 min at room temperature. Paws were collected and immediately transferred to liquid nitrogen prior to homogenization in 1 ml ice cold MeOH and homogenized using a glass dounce. All samples for LC-MS/MS-based profiling were extracted using solid-phase extraction columns as in Walker, M. E., Souza, P. R., Colas, R. A. & Dalli, J. “13-Series resolvins mediate the leukocyte-platelet actions of atorvastatin and pravastatin in inflammatory arthritis.” FASEB J 31, 3636-3648 (2017), the contents of which are incorporated herein by reference. Prior to sample extraction, deuterated internal standards, representing each region in the chromatographic analysis (500 pg each) were added to facilitate quantification. Samples were kept at −20° C. for a minimum of 45 min to allow protein precipitation. Supernatants were subjected to solid phase extraction, methyl formate fraction collected, brought to dryness and suspended in phase (methanol/water, 1:1, vol/vol) for injection on a Shimadzu LC-20AD HPLC and a Shimadzu SIL-20AC autoinjector, paired with a QTrap 5500 or QTrap 6500 plus (Sciex). An Agilent Poroshell 120 EC-C18 column (100 mm×4.6 mm×2.7 μm) was kept at 50° C. and mediators eluted using a mobile phase consisting of methanol/water/acetic acid of 20:80:0.01 (vol/vol/vol) that was ramped to 50:50:0.01 (vol/vol/vol) over 0.5 min and then to 80:20:0.01 (vol/vol/vol) from 2 min to 11 min, maintained till 14.5 min and then rapidly ramped to 98:2:0.01 (vol/vol/vol) for the next 0.1 min. This was subsequently maintained at 98:2:0.01 (vol/vol/vol) for 5.4 min, and the flow rate was maintained at 0.5 ml/min. QTrap 5500 or QTrap 6500 plus were operated using a multiple reaction monitoring method as in Walker, M. E., Souza, P. R., Colas, R. A. & Dalli, J. “13-Series resolvins mediate the leukocyte-platelet actions of atorvastatin and pravastatin in inflammatory arthritis.” FASEB J 31, 3636-3648 (2017), the contents of which are incorporated herein by reference. […]
# [2] = system: SPM formation in human peripheral blood; assay: Human whole blood incubation with MTX, plasma SPM by LC-MS/MS lipid mediator profiling; type: cell-based; conditions: MTX 100 nM, 37° C., 45 min
# Procedure: Plasma was obtained by centrifugation and peripheral blood SPM concentrations were determined using LC-MS/MS based lipid mediator profiling. (A) OPLS-DA analysis of plasma SPM concentrations. Colored spherical areas display 95% confidence region of respective incubations. […] Results for A, B are representative of n=6 donors from three distinct experiments. […] Blood was then collected after 1 hour and SPM concentrations were determined using LC-MS/MS based lipid mediator profiling (D) oPLS-DA analysis of plasma SPM concentrations. Colored areas display 95% confidence region of respective incubations. […] Results are representative of n=4 mice per group and experiments were conducted on two distinct occasions.
# Incubations were quenched and SPM were identified and quantified using LC-MS/MS-based lipid mediator profiling. Results are mean±SEM. n=6 volunteers per group.
# Plasma was obtained from peripheral blood of healthy volunteers, patients and mouse following centrifugation at 1500×g for 10 min at room temperature. Paws were collected and immediately transferred to liquid nitrogen prior to homogenization in 1 ml ice cold MeOH and homogenized using a glass dounce. All samples for LC-MS/MS-based profiling were extracted using solid-phase extraction columns as in Walker, M. E., Souza, P. R., Colas, R. A. & Dalli, J. “13-Series resolvins mediate the leukocyte-platelet actions of atorvastatin and pravastatin in inflammatory arthritis.” FASEB J 31, 3636-3648 (2017), the contents of which are incorporated herein by reference. Prior to sample extraction, deuterated internal standards, representing each region in the chromatographic analysis (500 pg each) were added to facilitate quantification. Samples were kept at −20° C. for a minimum of 45 min to allow protein precipitation. Supernatants were subjected to solid phase extraction, methyl formate fraction collected, brought to dryness and suspended in phase (methanol/water, 1:1, vol/vol) for injection on a Shimadzu LC-20AD HPLC and a Shimadzu SIL-20AC autoinjector, paired with a QTrap 5500 or QTrap 6500 plus (Sciex). An Agilent Poroshell 120 EC-C18 column (100 mm×4.6 mm×2.7 μm) was kept at 50° C. and mediators eluted using a mobile phase consisting of methanol/water/acetic acid of 20:80:0.01 (vol/vol/vol) that was ramped to 50:50:0.01 (vol/vol/vol) over 0.5 min and then to 80:20:0.01 (vol/vol/vol) from 2 min to 11 min, maintained till 14.5 min and then rapidly ramped to 98:2:0.01 (vol/vol/vol) for the next 0.1 min. This was subsequently maintained at 98:2:0.01 (vol/vol/vol) for 5.4 min, and the flow rate was maintained at 0.5 ml/min. QTrap 5500 or QTrap 6500 plus were operated using a multiple reaction monitoring method as in Walker, M. E., Souza, P. R., Colas, R. A. & Dalli, J. “13-Series resolvins mediate the leukocyte-platelet actions of atorvastatin and pravastatin in inflammatory arthritis.” FASEB J 31, 3636-3648 (2017), the contents of which are incorporated herein by reference. Each lipid mediator was identified using established criteria including matching retention time to synthetic or authentic standards and at least 6 diagnostic ions (Walker, M. E., Souza, P. R., Colas, R. A. & Dalli, J. “13-Series resolvins mediate the leukocyte-platelet actions of atorvastatin and pravastatin in inflammatory arthritis.” FASEB J 31, 3636-3648 (2017), the contents of which are incorporated herein by reference).
# [3] = system: inflammatory arthritis in Alox15-/- mice; assay: K/BxN serum inflammatory arthritis in Alox15-/- mice treated with MTX; type: in vivo
# Procedure: as §1, §2, §3
# [4] = MTX 25 mg/kg i.p. days 3, 5 and 7
# [5] = Alox15-/- mice, MTX 25 mg/kg i.p. days 3, 5 and 7
compound,measurement,setting,value
"CN(Cc1cnc2nc(N)nc(N)c2n1)c1ccc(C(=O)N[C@@H](CCC(=O)O)C(=O)O)cc1 [MTX, Methotrexate]",paw edema,[1]; [4],decrease
same,weight loss,[1]; [4],improvement
same,clinical scores,"[1]; MTX 25 mg/kg i.p. days 3, 5 and 7, 26-point score",significant reduction
same,"number of eosinophils, neutrophils, monocytes and macrophages recruited to the joint","[1]; day 8, flow cytometry",decrease
same,inflammatory eicosanoid concentrations,"[1]; plasma and joints, day 8, LC-MS/MS",regulates; also recorded: reduction
same,"mediators from the DHA, n-3 DPA and EPA bioactive metabolomes including PDX, RvD1 and RvE3",[2],upregulation
same,plasma SPM concentrations,[2],upregulates; also recorded: increase
same,"plasma 4S,14S-diHDHA concentration, Mean ± SEM",[2]; n=6,2.82 ± 0.56
same,"plasma 5S,15S-diHETE concentration, Mean ± SEM",[2]; n=6,5.32 ± 0.43
same,"plasma 7S,14S-diHDHA concentration, Mean ± SEM",[2]; n=6,0.00 ± 0.00
same,"plasma 10S,17S-diHDPA concentration, Mean ± SEM",[2]; n=6,0.55 ± 0.16
same,"plasma 13,14-dehydro-15-oxo-LXA4 concentration, Mean ± SEM",[2]; n=6,82.74 ± 32.78
same,"plasma 14-oxo-MaR1 concentration, Mean ± SEM",[2]; n=6,0.00 ± 0.00
same,"plasma 14S-diHDPA concentration, Mean ± SEM",[2]; n=6,2.04 ± 0.41
same,"plasma 15-oxo-LXA4 concentration, Mean ± SEM",[2]; n=6,3.78 ± 0.56
same,"plasma 15R-LXB4 concentration, Mean ± SEM",[2]; n=6,2.13 ± 0.45
same,"plasma 17R-PD1 concentration, Mean ± SEM",[2]; n=6,0.96 ± 0.39
same,"plasma 17R-RvD1 concentration, Mean ± SEM",[2]; n=6,7.50 ± 1.97
same,"plasma 17R-RvD3 concentration, Mean ± SEM",[2]; n=6,2.68 ± 0.67
same,"plasma 22-OH-MaR1 concentration, Mean ± SEM",[2]; n=6,18.44 ± 4.31
same,"plasma 22-OH-PD1 concentration, Mean ± SEM",[2]; n=6,7.86 ± 2.61
same,"plasma LXA4 concentration, Mean ± SEM",[2]; n=6,0.55 ± 0.10
same,"plasma LXB4 concentration, Mean ± SEM",[2]; n=6,13.42 ± 2.93
same,"plasma MaR1 concentration, Mean ± SEM",[2]; n=6,24.53 ± 3.12
same,"plasma MaR1n-3 DPA concentration, Mean ± SEM",[2]; n=6,1.09 ± 0.29
same,"plasma MaR2 concentration, Mean ± SEM",[2]; n=6,0.00 ± 0.00
same,"plasma MaR2n-3 DPA concentration, Mean ± SEM",[2]; n=6,7.97 ± 0.87
same,"plasma PD1 concentration, Mean ± SEM",[2]; n=6,2.11 ± 0.24
same,"plasma PD1n-3 DPA concentration, Mean ± SEM",[2]; n=6,0.34 ± 0.10
same,"plasma PD2n-3 DPA concentration, Mean ± SEM",[2]; n=6,3.01 ± 1.23
same,"plasma PDx concentration, Mean ± SEM",[2]; n=6,1.55 ± 0.22
same,"plasma RvD1 concentration, Mean ± SEM",[2]; n=6,9.09 ± 1.13
same,"plasma RvD1n-3 DPA concentration, Mean ± SEM",[2]; n=6,5.43 ± 1.10
same,"plasma RvD2 concentration, Mean ± SEM",[2]; n=6,0.32 ± 0.13
same,"plasma RvD2n-3 DPA concentration, Mean ± SEM",[2]; n=6,3.58 ± 1.16
same,"plasma RvD3 concentration, Mean ± SEM",[2]; n=6,3.57 ± 1.38
same,"plasma RvD4 concentration, Mean ± SEM",[2]; n=6,1.44 ± 0.59
same,"plasma RvD5 concentration, Mean ± SEM",[2]; n=6,1.05 ± 0.22
same,"plasma RvD5n-3 DPA concentration, Mean ± SEM",[2]; n=6,1.26 ± 0.24
same,"plasma RvD6 concentration, Mean ± SEM",[2]; n=6,1.07 ± 0.21
same,"plasma RvE1 concentration, Mean ± SEM",[2]; n=6,1.15 ± 0.32
same,"plasma RvE2 concentration, Mean ± SEM",[2]; n=6,3.82 ± 1.15
same,"plasma RvE3 concentration, Mean ± SEM",[2]; n=6,4.49 ± 0.23
same,"plasma RvT1 concentration, Mean ± SEM",[2]; n=6,9.18 ± 2.50
same,"plasma RvT2 concentration, Mean ± SEM",[2]; n=6,1.63 ± 0.35
same,"plasma RvT3 concentration, Mean ± SEM",[2]; n=6,0.60 ± 0.24
same,"plasma RvT4 concentration, Mean ± SEM",[2]; n=6,0.36 ± 0.15
same,disease activity,[3]; [5],no longer regulated
same,weight loss,[3]; [5],no longer regulated
same,peripheral blood and circulating eicosanoid concentrations,"[3]; Alox15-/- mice, day 8, LC-MS/MS",lost and no longer regulated
same,leukocyte trafficking,"[3]; Alox15-/- mice, day 8, flow cytometry",no longer regulated
same,protective actions of MTX,[3]; mice lacking the ALOX15 enzyme,lost
